1 compound from article PMC12624743 (ACS Infectious Diseases, 2025) can be followed below.

In brackets after ≈: the same amount, converted by molar mass.

The target in assay [1] is N. gonorrhoeae topoisomerase IV ParC^S87N (Neisseria gonorrhoeae, UniProt P48374, S87N). The assay can be described thus: Topoisomerase IV-catalyzed DNA decatenation assay, ParC^S87N. Type of assay: biochemical. More on the design: His; made in house. The protocol: (§1) All proteins were His-tagged. N. gonorrhoeae WT gyrase (GyrA, GyrB) and topoisomerase IV (ParC, ParE) subunits as well as mutant GyrA^D90N, GyrA^A92T, GyrA^S91F, and GyrA^S91F/D95G gyrase and ParC^D86N and ParC^S88P topoisomerase IV were prepared as described previously. , N. gonorrhoeae mutant GyrA^D95G gyrase and mutant ParC^S87N and ParC^E91G topoisomerase IV were generated using a QuickChange II XL site-directed mutagenesis kit (Agilent Technologies) with custom primers for the desired mutations. Mutant N. gonorrhoeae GyrA and ParC subunits were expressed and purified as described by Ashley et al. with the following modifications to optimize protein expression and lysis: (1) GyrA^D95G was expressed for 2.5 h and ParC^S87N and ParC^E91G were expressed for 3 h before harvesting, and (2) cells were lysed by sonication using a digital sonifier (Branson). The identities of all constructs were confirmed by DNA sequencing, and all enzymes were stored at −80 °C. In all assays, N. gonorrhoeae gyrase or topoisomerase IV was used as a 1:1 GyrA:GyrB or ParC:ParE mixture, respectively, and the stated enzyme concentration reflects that of the holoenzyme (A2B2). […]
Chain of N. gonorrhoeae topoisomerase IV ParC^S87N (P48374 whole entry S87N): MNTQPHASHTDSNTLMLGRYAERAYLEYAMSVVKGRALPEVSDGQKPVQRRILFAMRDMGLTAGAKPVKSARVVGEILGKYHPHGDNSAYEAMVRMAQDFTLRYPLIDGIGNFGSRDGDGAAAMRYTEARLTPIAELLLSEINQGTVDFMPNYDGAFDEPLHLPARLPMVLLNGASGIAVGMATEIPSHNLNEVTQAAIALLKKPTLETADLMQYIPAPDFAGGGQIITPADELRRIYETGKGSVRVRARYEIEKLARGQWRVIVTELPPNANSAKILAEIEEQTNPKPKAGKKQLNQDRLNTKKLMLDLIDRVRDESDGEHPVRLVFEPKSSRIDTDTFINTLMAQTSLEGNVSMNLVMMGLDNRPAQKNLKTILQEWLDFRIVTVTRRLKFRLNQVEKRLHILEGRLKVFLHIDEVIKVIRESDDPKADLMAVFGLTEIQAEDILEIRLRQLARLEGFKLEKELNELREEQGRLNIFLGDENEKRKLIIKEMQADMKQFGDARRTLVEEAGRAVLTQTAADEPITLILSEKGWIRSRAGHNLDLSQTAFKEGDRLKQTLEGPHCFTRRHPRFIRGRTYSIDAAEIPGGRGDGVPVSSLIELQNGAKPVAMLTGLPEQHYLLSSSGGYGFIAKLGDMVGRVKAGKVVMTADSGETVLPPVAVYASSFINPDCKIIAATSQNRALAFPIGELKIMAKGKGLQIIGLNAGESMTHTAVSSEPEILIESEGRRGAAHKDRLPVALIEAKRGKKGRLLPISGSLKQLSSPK

For assay [2], the target named is T1, N. gonorrhoeae gyrase GyrA^D95G (Neisseria gonorrhoeae, UniProt P48371, D95G).
T1 construct: His; made in house
T1 sequence (P48371 whole entry D95G): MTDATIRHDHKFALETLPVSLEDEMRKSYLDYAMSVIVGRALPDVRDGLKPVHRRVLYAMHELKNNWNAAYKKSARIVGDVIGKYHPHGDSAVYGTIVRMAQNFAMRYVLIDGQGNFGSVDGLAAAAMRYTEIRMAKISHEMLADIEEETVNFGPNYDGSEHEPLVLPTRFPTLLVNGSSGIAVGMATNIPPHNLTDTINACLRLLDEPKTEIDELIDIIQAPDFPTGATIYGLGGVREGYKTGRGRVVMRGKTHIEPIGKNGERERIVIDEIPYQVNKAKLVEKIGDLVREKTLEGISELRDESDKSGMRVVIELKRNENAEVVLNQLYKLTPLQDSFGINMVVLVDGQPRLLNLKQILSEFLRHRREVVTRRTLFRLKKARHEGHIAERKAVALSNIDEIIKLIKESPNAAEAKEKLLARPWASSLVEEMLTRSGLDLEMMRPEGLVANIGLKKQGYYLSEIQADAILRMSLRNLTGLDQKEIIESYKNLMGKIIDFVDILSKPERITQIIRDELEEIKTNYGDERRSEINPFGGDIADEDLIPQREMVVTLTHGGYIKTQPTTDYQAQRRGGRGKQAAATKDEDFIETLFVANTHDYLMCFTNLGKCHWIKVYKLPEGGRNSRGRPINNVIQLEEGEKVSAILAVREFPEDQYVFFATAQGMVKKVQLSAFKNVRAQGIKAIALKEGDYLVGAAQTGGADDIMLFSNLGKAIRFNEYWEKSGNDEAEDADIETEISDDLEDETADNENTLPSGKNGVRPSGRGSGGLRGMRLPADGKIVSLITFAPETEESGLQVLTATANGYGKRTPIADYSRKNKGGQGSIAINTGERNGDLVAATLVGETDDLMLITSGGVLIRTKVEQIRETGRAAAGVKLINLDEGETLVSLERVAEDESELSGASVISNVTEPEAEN
T1 sequence (P22118 whole entry partner): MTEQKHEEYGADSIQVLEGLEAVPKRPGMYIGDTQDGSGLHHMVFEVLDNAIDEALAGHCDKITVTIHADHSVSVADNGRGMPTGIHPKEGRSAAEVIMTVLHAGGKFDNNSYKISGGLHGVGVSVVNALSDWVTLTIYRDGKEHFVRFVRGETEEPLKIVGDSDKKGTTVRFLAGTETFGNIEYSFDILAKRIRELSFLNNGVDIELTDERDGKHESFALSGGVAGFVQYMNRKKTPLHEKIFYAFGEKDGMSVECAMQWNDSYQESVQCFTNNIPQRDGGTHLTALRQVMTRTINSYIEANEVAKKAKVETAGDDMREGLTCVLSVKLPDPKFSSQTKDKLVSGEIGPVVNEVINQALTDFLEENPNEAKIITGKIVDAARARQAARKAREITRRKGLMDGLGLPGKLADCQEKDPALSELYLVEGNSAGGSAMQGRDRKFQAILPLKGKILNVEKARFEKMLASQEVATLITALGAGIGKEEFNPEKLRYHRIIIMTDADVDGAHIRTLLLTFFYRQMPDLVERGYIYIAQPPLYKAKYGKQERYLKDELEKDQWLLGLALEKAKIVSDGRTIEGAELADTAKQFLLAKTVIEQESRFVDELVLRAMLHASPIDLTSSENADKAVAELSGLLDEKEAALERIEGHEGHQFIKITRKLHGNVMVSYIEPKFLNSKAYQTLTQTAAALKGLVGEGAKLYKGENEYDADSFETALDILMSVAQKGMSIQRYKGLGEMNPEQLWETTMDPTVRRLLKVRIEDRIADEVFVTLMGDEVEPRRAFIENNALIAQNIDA
The assay can be described thus: Gyrase-catalyzed DNA supercoiling assay, GyrA^D95G. In kind it is biochemical. The protocol: All proteins were His-tagged. N. gonorrhoeae WT gyrase (GyrA, GyrB) and topoisomerase IV (ParC, ParE) subunits as well as mutant GyrA^D90N, GyrA^A92T, GyrA^S91F, and GyrA^S91F/D95G gyrase and ParC^D86N and ParC^S88P topoisomerase IV were prepared as described previously. , N. gonorrhoeae mutant GyrA^D95G gyrase and mutant ParC^S87N and ParC^E91G topoisomerase IV were generated using a QuickChange II XL site-directed mutagenesis kit (Agilent Technologies) with custom primers for the desired mutations. […] The identities of all constructs were confirmed by DNA sequencing, and all enzymes were stored at −80 °C. In all assays, N. gonorrhoeae gyrase or topoisomerase IV was used as a 1:1 GyrA:GyrB or ParC:ParE mixture, respectively, and the stated enzyme concentration reflects that of the holoenzyme (A2B2).
Samples were mixed with 2 μL of loading dye [60% sucrose, 10 mM Tris–HCl (pH 7.9), 0.5% bromophenol blue, and 0.5% xylene cyanol FF] and incubated at 45 °C for 2 min before being subjected to electrophoresis on 1% agarose gels in 100 mM Tris-borate (pH 8.3) and 2 mM EDTA. […] DNA bands were visualized with medium-range ultraviolet light and quantified using an Alpha Innotech digital imaging system (Protein Simple). DNA supercoiling was monitored by the conversion of relaxed to supercoiled plasmid.

For assay [3], the system named is N. gonorrhoeae FA1090E-3 (GyrA^A92T/ParC^D86N). As to the kind of experiment: MIC by agar dilution, GyrA^A92T/ParC^D86N strain. Type of assay: cell-based, Neisseria gonorrhoeae. The protocol:
This strain was designated FA1090E-3 (GyrA^A92T/ParC^D86N).
Minimum inhibitory concentration (MIC) of test compounds was determined by an agar dilution method, the reference testing method for N. gonorrhoeae according to the standards of the Clinical and Laboratory Standards Institute and the CDC.

In another assay the target is T2, WT N. gonorrhoeae gyrase (Neisseria gonorrhoeae, UniProt P48371).
T2 construct: His; made in house
T2 sequence (P48371 whole entry): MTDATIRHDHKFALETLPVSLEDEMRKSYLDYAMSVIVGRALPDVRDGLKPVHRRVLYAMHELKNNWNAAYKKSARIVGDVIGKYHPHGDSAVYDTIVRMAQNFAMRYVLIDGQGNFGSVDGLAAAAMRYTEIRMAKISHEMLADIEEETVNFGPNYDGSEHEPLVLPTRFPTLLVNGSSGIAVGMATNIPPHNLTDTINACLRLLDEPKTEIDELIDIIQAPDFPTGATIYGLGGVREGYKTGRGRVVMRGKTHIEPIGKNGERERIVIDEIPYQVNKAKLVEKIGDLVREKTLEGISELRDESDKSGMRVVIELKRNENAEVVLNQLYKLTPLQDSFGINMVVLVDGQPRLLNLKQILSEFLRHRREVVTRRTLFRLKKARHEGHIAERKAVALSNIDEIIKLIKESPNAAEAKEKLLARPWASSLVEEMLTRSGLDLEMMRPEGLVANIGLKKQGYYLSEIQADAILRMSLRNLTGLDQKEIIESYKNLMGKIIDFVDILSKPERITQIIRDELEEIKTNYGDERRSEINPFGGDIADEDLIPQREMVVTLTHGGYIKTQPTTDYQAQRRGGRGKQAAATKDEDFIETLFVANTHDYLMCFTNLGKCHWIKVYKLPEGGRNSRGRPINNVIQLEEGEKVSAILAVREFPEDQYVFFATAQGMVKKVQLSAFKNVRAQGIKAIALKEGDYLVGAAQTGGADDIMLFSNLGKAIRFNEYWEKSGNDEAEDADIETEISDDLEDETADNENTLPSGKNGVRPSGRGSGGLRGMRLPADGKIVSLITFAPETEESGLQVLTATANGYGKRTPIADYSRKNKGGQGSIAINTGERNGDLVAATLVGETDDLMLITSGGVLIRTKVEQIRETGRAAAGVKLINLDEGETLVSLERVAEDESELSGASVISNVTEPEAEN
T2 sequence (P22118 whole entry partner): as the sequence (P22118 whole entry partner) above
The assay can be described thus: DNA cleavage assay, WT gyrase. In kind it is biochemical. As to the method: Some experiments replaced MgCl2 with an equivalent concentration of CaCl2 (10 mM), or 1.5 mM ATP was added to assay mixtures.
Reactions were incubated at 37 °C for 30 min with WT and mutant (GyrA^D90N, GyrA^A92T, GyrA^S91F, GyrA^D95G, or GyrA^S91F/D95G) N. gonorrhoeae gyrase, 10 min with WT N. gonorrhoeae topoisomerase IV, and 20 min with mutant (ParC^D86N, ParC^S88P, ParC^S87N, or ParC^E91G) N. gonorrhoeae topoisomerase IV. Enzyme-DNA cleavage complexes were trapped by adding 2 μL of 5% SDS followed by 2 μL of 250 mM EDTA (pH 8.0). Proteinase K was added (2 μL of a 0.8 mg/mL solution), and reaction mixtures were incubated at 45 °C for 30 min to digest the enzyme. Samples were mixed with 2 μL of loading buffer and heated at 45 °C for 2 min prior to electrophoresis in 1% agarose gels in 40 mM Tris-acetate (pH 8.3), and 2 mM EDTA containing 0.5 μg/mL ethidium bromide. DNA bands were visualized by midrange ultraviolet light and quantified using an Alpha Innotech digital imaging system (Protein Simple). Single-stranded DNA cleavage was monitored by the conversion of negatively supercoiled to nicked plasmid molecules.

Assay [4] deals with N. gonorrhoeae FA1090 (ATCC 700825). The assay can be described thus: MIC by agar dilution, parental strain FA1090. Type of assay: cell-based. Conditions: Neisseria gonorrhoeae, ATCC700825, parental strain FA1090, GyrA WT / ParC WT. As to the method: A series of isogenic N. gonorrhoeae strains was constructed that carried the specific target mutations GyrA^A92T or GyrA^D90N either alone or in combination with ParC^D86N or GyrA^S91F/D95G in a ciprofloxacin-susceptible strain, FA1090 (ATCC 700825).
All N. gonorrhoeae isolates were cultured and grown on GC agar plates or in fastidious broth (Remel, 07664). Minimum inhibitory concentration (MIC) of test compounds was determined by an agar dilution method, the reference testing method for N. gonorrhoeae according to the standards of the Clinical and Laboratory Standards Institute and the CDC. MIC values were determined after incubation at 37 °C for 48 h in 5% CO2.

In assay [5] the target is N. gonorrhoeae topoisomerase IV ParC^E91G (Neisseria gonorrhoeae, UniProt P48374, E91G). As to the kind of experiment: Topoisomerase IV-catalyzed DNA decatenation assay, ParC^E91G. In kind it is biochemical. Details: His; made in house. The protocol:
as §1

Chain of N. gonorrhoeae topoisomerase IV ParC^E91G (P48374 whole entry E91G): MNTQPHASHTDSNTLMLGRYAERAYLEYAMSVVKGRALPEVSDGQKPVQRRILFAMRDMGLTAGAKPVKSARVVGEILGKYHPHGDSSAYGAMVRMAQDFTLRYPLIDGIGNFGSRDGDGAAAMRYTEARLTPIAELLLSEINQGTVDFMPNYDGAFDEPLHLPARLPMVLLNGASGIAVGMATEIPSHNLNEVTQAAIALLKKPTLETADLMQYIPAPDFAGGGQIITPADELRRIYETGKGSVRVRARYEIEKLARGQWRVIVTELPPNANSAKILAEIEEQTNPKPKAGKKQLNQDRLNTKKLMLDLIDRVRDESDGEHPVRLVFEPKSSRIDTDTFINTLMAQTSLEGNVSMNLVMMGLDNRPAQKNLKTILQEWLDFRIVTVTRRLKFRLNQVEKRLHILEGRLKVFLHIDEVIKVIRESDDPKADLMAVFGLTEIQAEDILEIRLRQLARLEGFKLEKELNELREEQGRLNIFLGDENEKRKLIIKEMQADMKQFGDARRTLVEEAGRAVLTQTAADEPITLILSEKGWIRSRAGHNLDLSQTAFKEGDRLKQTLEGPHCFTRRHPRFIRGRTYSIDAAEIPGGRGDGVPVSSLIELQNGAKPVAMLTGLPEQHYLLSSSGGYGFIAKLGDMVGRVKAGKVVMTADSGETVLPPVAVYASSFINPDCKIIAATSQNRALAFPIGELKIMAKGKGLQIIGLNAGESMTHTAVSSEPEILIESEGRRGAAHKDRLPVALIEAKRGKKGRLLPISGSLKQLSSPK

On to `O=c1ccc2ncc(=O)n3c2n1C[C@H]3CN1CCC(NCc2cc3c(cn2)OCCC3)CC1` [gepotidacin], for which the half-inhibitory concentration (IC50) in assay [1] came to 800 nM; in assay [2] (GyrA D95G gyrase, read-out: IC50, inhibition of DNA supercoiling), 2000 nM; in assay [5] it was 1500 nM. For the same compound, the “fold lower supercoiling IC50 vs WT gyrase” value in assay [2] (GyrA D95G vs WT) was approximately 2.6 fold. The figures for the MIC in assay [3] (Neisseria gonorrhoeae) and in assay [4] were 8 µg/mL (≈ 17.8 µM) and 0.125 µg/mL, respectively. Further, the “fold-change in MIC from WT/WT parental strain” value in assay [3] (strain FA1090E-3 vs FA1090E) came out at 16 fold. The “effect of ATP on potency and maximal DNA cleavage” value on WT N. gonorrhoeae gyrase (1.5 mM ATP) was “little effect”. On WT N. gonorrhoeae gyrase (Mg2+ replaced with Ca2+), the “effect on double-stranded DNA scission” value is “little effect”. Further, the EC50 on WT N. gonorrhoeae gyrase (Mg2+, no ATP, read-out: CC50, single-stranded DNA cleavage) came to 900 ± 300 nM. The “Adj-Max Cleavage, single-stranded DNA breaks” value on WT N. gonorrhoeae gyrase (adjusted for baseline cleavage) is given as approximately 17.1%. The “additional enhancement of double-stranded DNA breaks above baseline” value on WT N. gonorrhoeae gyrase (up to 200 μM gepotidacin, up to 180 min) is reported as “not observed”.
